Entries after “also recorded” stand apart in the source; their conditions may differ.
System: C. difficile M7404
Assay: In vitro polydatin bioactivation and C. difficile antagonism by conditioned (spent) media of B. uniformis WT
Assay type: cell-based, Clostridioides difficile
Settings: polydatin 500 μM, 1/2-diluted, C. difficile M7404 growth 12 h (FIG. 5A)
Protocol: FIGS. 5A and 5B show microbiome-mediated polyphenol aglycone liberation. […] Step 2: Spent media was filter-sterilized. Step 3: C. difficile was grown in spent media from either vehicle or polydatin (top). […]
The experimental media consisted of a modified YCFA media (mYCFA; casitone (2.5 g/L), yeast extract (0.625 g/L), cysteine (0.5 g/L), magnesium sulfate heptahydrate (f.c. 365 μM), calcium chloride dihydrate (f.c. 610 μM), sodium bicarbonate (4 g/L), dipotassium phosphate (0.45 g/L), monopotassium phosphate (0.45 g/L), sodium chloride (0.9 g/L), sodium acetate (2.71 g/L), Hemin (50 mg/L), Vitamin K1 (0.25 mg/L), ferrous sulfate (4 μg/mL), and ATCC vitamin mix (1% v/v)) supplemented with glucose (15 mM, Sigma) plus ½-diluted B. uniformis WT or AgshD conditioned media from growth with or without polydatin. C. difficile growth was monitored by measuring the optical density at 600 nm (OD600) of each culture in a 384 well plate with an Epoch2 spectrophotometer (BioTek Instruments) for 12 hours.

With `OC[C@H]1O[C@@H](Oc2cc(O)cc(/C=C/c3ccc(O)cc3)c2)[C@H](O)[C@@H](O)[C@@H]1O` [polydatin] as the compound, how does the “anti-C. difficile activity of conditioned media from B. uniformis WT grown with polydatin” value read?
Its value is “inhibited the growth of Clostridioides difficile in vitro; also recorded: generated potent anti-C.difficile activity”.
